Data: US12653818B2, “Pharmaceutical compositions comprising nitroxoline lysinate, preparation method therefor and use thereof” (Jiangsu Yahong Meditech Co., Ltd., priority 2020, dated 2026)

What was measured:
[1] = Saturated solubility of the main drug in different media; type: physicochemical; details: for solubility at 72 h: thermodynamic from solid, 37° C.
Experimental: The solubility of the main drug (5-nitro-8-hydroxyquinoline L-lysinate monohydrate) is greatly affected by pH. In order to select a suitable dissolution medium to achieve the sink condition, the saturated solubility of the main drug in water, pH 1.0 hydrochloric acid solution, pH 4.0 buffer (solution A: water was added to 21 g of citric acid or 19.2 g of anhydrous citric acid to obtain a 1000 mL solution, which was then stored in a refrigerator; solution B: water was added to 71.63 g of disodium hydrogen phosphate to obtain a 1000 mL solution; 61.45 mL of solution A and 38.55 mL of solution B were mixed and shaked well to obtain the pH 4.0 buffer) and pH 6.8 PBS buffer (118 mL of 0.2 mol/L sodium hydroxide solution was added to 250 mL of 0.2 mol/L phosphoric acid solution, the resulting solution was diluted with water to 1000 mL and shaked well to obtain the pH 6.8 PBS buffer) were investigated. The specific method: excessive main drug (about 1.5 g) was added to 10 mL of the above four media, respectively; the resulting mixture was placed in a SHA-B multifunctional water bath constant temperature shaker (manufacturer: Zenith Lab (Jiangsu) Co., Ltd.) at water bath temperature of 37° C. and shaked at a speed of 280 rpm for 72 hours; the solution was filtered through a 0.45 μm nitrocellulose membrane (manufacturer: Tianjin Jinteng Experimental Equipment Co., Ltd.); and the filtrate was measured with a UV-2700 ultraviolet-visible spectrophotometer (manufacturer: Shimadzu, Japan), detection wavelength: 369 nm.

[2] = compared with nitroxoline; in words; cited from earlier work

Row | Compound | Whether the sink condition was achieved ([1]; Water) | solubility at 72 h ([1]; aqueous buffer, pH 6.8 PBS buffer) [µg/mL] | Whether the sink condition was achieved ([1]; pH 1.0 hydrochloric acid solution) | Whether the sink condition was achieved ([1]; pH 4.0 buffer) | solubility at 72 h ([1]; pH 4.0 buffer (citric acid / disodium hydrogen phosphate), aqueous buffer, pH 4.0 buffer) [µg/mL] | Whether the sink condition was achieved ([1]; pH 6.8 PBS buffer) | solubility at 72 h ([1]; simulated gastric fluid, pH 1.0 hydrochloric acid solution) [µg/mL] | solubility at 72 h ([1]; Water) [µg/mL] | water solubility [2]
1 | O=[N+]([O-])c1ccc(O)c2ncccc12 [main drug, 5-nitro-8-hydroxyquinoline L-lysinate monohydrate] | Yes | 15700 | Yes | No | 430 | Yes | 1540 | 100000 | –
2 | O=[N+]([O-])c1ccc(O)c2ncccc12 [nitroxoline lysinate] | – | – | – | – | – | – | – | – | better than that of nitroxoline
